In paper PMC5097156, “Potent and selective chemical probe of hypoxic signalling downstream of HIF-α hydroxylation via VHL inhibition” (Nature Communications, 2016):

Key:
Experiment in all cases: biochemical
Parameters in all cases: Dundee MRC-PPU Express kinase screen, remaining kinase activity
Details in all cases: read-out: Mean % of remaining kinase activity (±sd)
[1] = target: T1, EPH-A2 (Homo sapiens, UniProt P29317)
T1 construct: gene EPHA2

[2] = target: SYK (Homo sapiens, UniProt P43405)
[3] = target: PLK1 (Homo sapiens, UniProt P53350)
[4] = target: T2, MST2 (Homo sapiens, UniProt Q13188)
T2 construct: gene STK3

[5] = target: T3, PDK1 (Homo sapiens, UniProt O15530)
T3 construct: gene PDPK1

[6] = target: T4, Aurora B (Homo sapiens, UniProt Q96GD4)
T4 construct: gene AURKB

[7] = target: T5, IGF-1R (Homo sapiens, UniProt P08069)
T5 construct: gene IGF1R

[8] = target: T6, PKA (Homo sapiens, UniProt P17612)
T6 construct: gene PRKACA

[9] = target: T7, PRK2 (Homo sapiens, UniProt Q16513)
T7 construct: gene PKN2

[10] = target: T8, PKD1 (Homo sapiens, UniProt Q15139)
T8 construct: gene PRKD1

[11] = target: T9, MSK1 (Homo sapiens, UniProt O75582)
T9 construct: gene RPS6KA5

[12] = target: T10, RSK1 (Homo sapiens, UniProt Q15418)
T10 construct: gene RPS6KA1

[13] = target: TTK (Homo sapiens, UniProt P33981)
[14] = target: T11, JNK1 (Homo sapiens, UniProt P45983)
T11 construct: gene MAPK8

[15] = target: T12, AMPK (hum) (Homo sapiens, UniProt Q13131)
T12 construct: gene PRKAA1

[16] = target: NEK6 (Homo sapiens, UniProt Q9HC98)
[17] = target: RIPK2 (Homo sapiens, UniProt O43353)
[18] = target: CAMK1 (Homo sapiens, UniProt Q14012)
[19] = target: T13, TAK1 (Homo sapiens, UniProt O43318)
T13 construct: gene MAP3K7

[20] = target: JAK3 (Homo sapiens, UniProt P52333)
[21] = target: IRAK4 (Homo sapiens, UniProt Q9NWZ3)
[22] = target: T14, SmMLCK (Homo sapiens, UniProt Q15746)
T14 construct: gene MYLK; smooth muscle

[23] = target: T15, S6K1 (Homo sapiens, UniProt P23443)
T15 construct: gene RPS6KB1

[24] = target: GSK3b (Homo sapiens, UniProt P49841)
[25] = target: T16, MKK1 (Homo sapiens, UniProt Q02750)
T16 construct: gene MAP2K1

[26] = target: Src (Homo sapiens, UniProt P12931)
[27] = target: Lck (Homo sapiens, UniProt P06239)
[28] = target: T17, ROCK 2 (Homo sapiens, UniProt O75116)
T17 construct: gene ROCK2
T17 sequence (O75116 whole entry): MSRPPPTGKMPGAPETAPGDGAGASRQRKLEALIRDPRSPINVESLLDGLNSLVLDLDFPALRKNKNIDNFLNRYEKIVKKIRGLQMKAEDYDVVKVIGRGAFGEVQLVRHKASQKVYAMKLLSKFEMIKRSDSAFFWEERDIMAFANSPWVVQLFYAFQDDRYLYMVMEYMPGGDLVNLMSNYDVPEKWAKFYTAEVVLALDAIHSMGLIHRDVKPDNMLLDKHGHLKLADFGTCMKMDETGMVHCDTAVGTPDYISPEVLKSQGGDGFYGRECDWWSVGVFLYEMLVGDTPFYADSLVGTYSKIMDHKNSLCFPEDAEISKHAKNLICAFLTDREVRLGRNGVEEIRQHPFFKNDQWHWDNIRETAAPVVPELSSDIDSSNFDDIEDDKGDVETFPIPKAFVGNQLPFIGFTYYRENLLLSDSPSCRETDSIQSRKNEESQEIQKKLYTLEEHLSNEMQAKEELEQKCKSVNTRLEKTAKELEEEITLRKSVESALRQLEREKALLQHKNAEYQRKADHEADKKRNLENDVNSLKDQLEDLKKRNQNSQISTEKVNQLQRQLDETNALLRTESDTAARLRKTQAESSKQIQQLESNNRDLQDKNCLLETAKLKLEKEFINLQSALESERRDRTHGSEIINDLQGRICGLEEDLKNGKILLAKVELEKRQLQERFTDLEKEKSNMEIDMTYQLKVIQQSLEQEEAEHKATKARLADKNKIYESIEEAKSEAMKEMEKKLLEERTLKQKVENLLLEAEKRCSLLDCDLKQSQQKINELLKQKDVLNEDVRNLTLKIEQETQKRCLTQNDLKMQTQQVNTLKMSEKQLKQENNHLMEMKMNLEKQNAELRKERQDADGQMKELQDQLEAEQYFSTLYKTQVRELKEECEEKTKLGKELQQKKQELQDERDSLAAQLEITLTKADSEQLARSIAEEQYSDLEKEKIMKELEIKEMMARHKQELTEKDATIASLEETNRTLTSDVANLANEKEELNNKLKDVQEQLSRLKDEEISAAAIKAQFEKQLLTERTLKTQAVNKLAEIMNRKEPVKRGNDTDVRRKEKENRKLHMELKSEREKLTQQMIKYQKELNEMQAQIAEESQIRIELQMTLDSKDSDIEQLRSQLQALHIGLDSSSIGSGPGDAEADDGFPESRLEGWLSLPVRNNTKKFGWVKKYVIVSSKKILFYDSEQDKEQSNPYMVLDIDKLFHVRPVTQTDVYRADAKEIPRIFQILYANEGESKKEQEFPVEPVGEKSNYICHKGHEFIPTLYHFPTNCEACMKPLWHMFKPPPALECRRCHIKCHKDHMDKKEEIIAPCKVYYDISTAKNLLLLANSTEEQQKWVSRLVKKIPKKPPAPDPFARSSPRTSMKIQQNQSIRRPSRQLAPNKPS

T7 sequence (Q16513 whole entry): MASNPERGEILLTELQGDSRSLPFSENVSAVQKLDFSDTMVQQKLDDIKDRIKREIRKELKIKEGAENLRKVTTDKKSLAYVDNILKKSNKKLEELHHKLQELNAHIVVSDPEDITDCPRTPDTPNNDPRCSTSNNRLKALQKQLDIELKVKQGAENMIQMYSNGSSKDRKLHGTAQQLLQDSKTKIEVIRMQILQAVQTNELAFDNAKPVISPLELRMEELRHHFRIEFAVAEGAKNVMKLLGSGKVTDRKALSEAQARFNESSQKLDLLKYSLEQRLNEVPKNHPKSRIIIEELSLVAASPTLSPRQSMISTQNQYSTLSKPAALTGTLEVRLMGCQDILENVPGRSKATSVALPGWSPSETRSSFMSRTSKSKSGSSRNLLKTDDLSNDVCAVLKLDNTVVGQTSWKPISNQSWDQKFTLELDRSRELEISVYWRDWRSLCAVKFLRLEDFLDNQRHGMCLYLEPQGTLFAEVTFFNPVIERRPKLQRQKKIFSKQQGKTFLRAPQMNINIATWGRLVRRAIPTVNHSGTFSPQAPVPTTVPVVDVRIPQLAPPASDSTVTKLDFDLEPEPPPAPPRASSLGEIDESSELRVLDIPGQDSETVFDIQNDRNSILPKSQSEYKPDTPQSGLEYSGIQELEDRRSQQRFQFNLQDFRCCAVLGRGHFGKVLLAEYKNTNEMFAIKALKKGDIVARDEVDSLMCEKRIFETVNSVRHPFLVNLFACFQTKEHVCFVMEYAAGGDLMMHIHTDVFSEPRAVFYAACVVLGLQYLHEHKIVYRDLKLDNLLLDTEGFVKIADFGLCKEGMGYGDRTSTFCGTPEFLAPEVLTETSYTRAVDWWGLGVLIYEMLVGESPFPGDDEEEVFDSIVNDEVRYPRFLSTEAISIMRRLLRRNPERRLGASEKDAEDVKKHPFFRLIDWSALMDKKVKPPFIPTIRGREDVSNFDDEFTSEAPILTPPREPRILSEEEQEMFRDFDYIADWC
Sequence of TTK (P33981 whole entry): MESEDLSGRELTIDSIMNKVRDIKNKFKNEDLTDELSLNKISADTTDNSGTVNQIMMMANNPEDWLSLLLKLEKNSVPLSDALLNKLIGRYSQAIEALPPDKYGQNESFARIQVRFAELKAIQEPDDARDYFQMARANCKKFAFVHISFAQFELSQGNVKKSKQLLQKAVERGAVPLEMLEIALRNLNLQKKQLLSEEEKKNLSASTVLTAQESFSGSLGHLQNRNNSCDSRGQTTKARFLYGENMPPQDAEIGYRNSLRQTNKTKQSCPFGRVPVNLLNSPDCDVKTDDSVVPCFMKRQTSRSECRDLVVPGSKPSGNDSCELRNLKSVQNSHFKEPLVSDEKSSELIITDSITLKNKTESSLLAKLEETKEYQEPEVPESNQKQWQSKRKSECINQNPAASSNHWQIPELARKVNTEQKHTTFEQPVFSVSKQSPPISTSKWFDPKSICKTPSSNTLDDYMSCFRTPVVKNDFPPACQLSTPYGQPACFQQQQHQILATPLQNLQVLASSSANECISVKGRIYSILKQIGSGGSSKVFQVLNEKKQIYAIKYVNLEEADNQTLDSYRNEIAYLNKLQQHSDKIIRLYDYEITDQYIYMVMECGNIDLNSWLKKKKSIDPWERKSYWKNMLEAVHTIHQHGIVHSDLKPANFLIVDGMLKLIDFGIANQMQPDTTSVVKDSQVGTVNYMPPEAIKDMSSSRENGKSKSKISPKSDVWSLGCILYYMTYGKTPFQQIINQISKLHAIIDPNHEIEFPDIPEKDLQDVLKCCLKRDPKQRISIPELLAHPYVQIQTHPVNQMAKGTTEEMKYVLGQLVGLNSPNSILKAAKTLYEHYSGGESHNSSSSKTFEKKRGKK
T4 sequence (Q96GD4 whole entry): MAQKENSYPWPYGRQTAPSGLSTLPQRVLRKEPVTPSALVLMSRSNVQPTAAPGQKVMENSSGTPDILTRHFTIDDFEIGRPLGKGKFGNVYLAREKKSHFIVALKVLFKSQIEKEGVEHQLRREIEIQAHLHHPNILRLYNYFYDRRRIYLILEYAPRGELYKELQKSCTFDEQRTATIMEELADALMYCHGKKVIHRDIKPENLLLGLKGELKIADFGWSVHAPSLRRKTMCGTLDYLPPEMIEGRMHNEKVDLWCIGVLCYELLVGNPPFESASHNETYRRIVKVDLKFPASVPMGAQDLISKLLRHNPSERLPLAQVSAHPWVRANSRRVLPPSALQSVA
T16 sequence (Q02750 whole entry): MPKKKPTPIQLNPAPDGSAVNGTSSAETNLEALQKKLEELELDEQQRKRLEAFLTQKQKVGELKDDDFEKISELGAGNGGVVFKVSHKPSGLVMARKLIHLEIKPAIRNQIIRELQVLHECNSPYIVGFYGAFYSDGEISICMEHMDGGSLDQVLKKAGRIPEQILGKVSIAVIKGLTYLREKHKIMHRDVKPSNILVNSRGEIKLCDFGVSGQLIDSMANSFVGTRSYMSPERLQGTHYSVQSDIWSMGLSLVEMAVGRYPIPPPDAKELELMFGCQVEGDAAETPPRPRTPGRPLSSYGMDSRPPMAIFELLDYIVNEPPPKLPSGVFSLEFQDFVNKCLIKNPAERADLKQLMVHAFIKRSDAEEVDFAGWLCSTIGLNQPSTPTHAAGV
Sequence of Lck (P06239 whole entry): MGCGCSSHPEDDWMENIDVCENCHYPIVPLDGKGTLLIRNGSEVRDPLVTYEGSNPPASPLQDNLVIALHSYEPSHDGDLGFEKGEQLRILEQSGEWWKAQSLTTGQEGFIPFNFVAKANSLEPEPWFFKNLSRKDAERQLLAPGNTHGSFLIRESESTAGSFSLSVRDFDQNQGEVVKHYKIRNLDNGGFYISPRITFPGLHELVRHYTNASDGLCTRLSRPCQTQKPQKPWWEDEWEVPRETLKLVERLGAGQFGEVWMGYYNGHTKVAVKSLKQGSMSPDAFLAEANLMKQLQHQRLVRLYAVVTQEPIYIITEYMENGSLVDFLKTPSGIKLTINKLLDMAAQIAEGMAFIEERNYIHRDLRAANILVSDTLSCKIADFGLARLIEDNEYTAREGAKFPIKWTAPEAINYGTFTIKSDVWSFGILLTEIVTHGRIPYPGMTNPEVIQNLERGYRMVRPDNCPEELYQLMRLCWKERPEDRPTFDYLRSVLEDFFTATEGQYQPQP
Sequence of Src (P12931 whole entry): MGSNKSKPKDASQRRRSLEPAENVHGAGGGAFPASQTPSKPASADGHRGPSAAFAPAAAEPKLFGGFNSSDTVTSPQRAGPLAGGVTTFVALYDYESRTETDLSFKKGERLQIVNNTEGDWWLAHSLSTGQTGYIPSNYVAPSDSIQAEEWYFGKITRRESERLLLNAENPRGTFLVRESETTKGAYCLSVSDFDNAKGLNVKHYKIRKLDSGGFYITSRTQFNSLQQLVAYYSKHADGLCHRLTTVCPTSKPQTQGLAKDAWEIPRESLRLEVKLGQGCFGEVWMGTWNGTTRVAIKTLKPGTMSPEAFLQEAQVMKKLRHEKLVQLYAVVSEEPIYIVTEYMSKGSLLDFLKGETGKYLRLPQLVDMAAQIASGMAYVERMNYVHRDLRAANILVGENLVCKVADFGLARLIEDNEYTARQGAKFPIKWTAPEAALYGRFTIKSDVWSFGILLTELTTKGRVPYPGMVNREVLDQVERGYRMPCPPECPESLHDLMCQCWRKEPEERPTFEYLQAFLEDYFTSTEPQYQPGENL

Cc1ncsc1-c1ccc(CNC(=O)[C@@H]2C[C@@H](O)CN2C(=O)[C@@H](NC(=O)C2(C#N)CC2)C(C)(C)C)cc1 [VH298]
remaining activity at 50 µM [1]: 107% | remaining activity at 50 µM [2]: 103% | remaining activity at 50 µM [3]: 100% | remaining activity at 50 µM [4]: 98% | remaining activity at 50 µM [5]: 110% | remaining activity at 50 µM [6]: 78% | remaining activity at 50 µM [7]: 110% | remaining activity at 50 µM [8]: 68% | remaining activity at 50 µM [9]: 110% | remaining activity at 50 µM [10]: 108% | remaining activity at 50 µM [11]: 87% | remaining activity at 50 µM [12]: 94% | remaining activity at 50 µM [13]: 97% | remaining activity at 50 µM [14]: 119% | remaining activity at 50 µM [15]: 101% | remaining activity at 50 µM [16]: 106% | remaining activity at 50 µM [17]: 112% | remaining activity at 50 µM [18]: 81% | remaining activity at 50 µM [19]: 111% | remaining activity at 50 µM [20]: 99% | remaining activity at 50 µM [21]: 112% | remaining activity at 50 µM [22]: 105% | remaining activity at 50 µM [23]: 87% | remaining activity at 50 µM [24]: 107% | remaining activity at 50 µM [25]: 85% | remaining activity at 50 µM [26]: 112% | remaining activity at 50 µM [27]: 104% | remaining activity at 50 µM [28]: 75%
